Laboratory results reported in US20080025986A1, “Methods of Treating Tnf-Mediated Disorders” (priority 2003, published 2008).

Assays:
Format in all cases: cell-based
IRS1 = assay: Insulin signaling in cells stimulated with insulin in the presence or absence of TNF-α
Procedure: (§1) To explore the possibility that Pirfenidone could be used to treat NASH, the effects of pirfenidone on cells stimulated with Insulin in the presence or absence of TNF-α were examined.
(§2) When cells were treated with Pirfenidone, TNF-α mediated Insulin resistance was ameliorated. […] More specifically, Pirfenidone decreased ERK activation by 7-fold, p38 MAPK by 2-fold and RAF activation by 2-fold (P<0.01 for all observations). In addition, Pirfenidone decreased the TNF-α mediated phosphorylation of the transcription activation factor CREB by 2-fold (P<0.01). […] In addition, Pirfenidone increased insulin-induced phosphorylation of IRS1. […] The results are depicted in FIGS. 3 and 4. FIG. 3 depicts inhibition of MAPK by pirfenidone. FIG. 4 depicts enhancement of insulin signaling by pirfenidone.

RAF = assay: Western blot, TNF-induced RAF kinase activation in cells; conditions: TNF cascade, P<0.01
Procedure: as §1, §2
(§3) FIG. 5 depicts various downstream signaling events that are triggered by TNF binding to a TNF receptor. TNF-mediated activation of various serine-threonine kinases are differentially affected by pirfenidone. Therefore, activation of transcription factors downstream of a given kinase will be differentially affected by pirfenidone. FIG. 6 depicts pirfenidone inhibition of TNF-induced ERK activation. FIG. 7 depicts pirfenidone inhibition of TNF-induced p38 MAPK activation. FIG. 8 depicts pirfenidone inhibition of TNF-induced activation of the transcription factor CREB. […]

ERK = assay: Western blot, TNF-induced ERK activation in cells; conditions: TNF cascade, P<0.01
Procedure: as §1, §2, §3

p38 MAPK = assay: Western blot, TNF-induced p38 MAPK activation in cells; conditions: TNF cascade, P<0.01
Procedure: as §1, §2, §3

AKT = assay: TNF-induced activation of AKT; conditions: FIG. 10
Description: (§4) FIG. 5 depicts various downstream signaling events that are triggered by TNF binding to a TNF receptor. TNF-mediated activation of various serine-threonine kinases are differentially affected by pirfenidone. Therefore, activation of transcription factors downstream of a given kinase will be differentially affected by pirfenidone. FIG. 6 depicts pirfenidone inhibition of TNF-induced ERK activation. FIG. 7 depicts pirfenidone inhibition of TNF-induced p38 MAPK activation. FIG. 8 depicts pirfenidone inhibition of TNF-induced activation of the transcription factor CREB. FIG. 9 depicts pirfenidone inhibition of TNF-induced activation of RAF kinase. FIG. 10 depicts pirfenidone inhibition of TNF-induced activation of AKT. FIG. 11 depicts pirfenidone potentiation of TNF-induced JNK activation.

ATF2 = assay: Phosphorylation of JNK-phosphorylated transcription factor ATF2; conditions: FIG. 12
Description: (§5) While phosphorylation of CREB is diminished due to decreased activity of p38 in the presence of pirfenidone, phosphorylation of the JNK-phosphorylated transcription factor ATF2 is potentiated in the presence of pirfenidone. FIG. 12 depicts pirfenidone potentiation of ATF2. Thus, pirfenidone potentiates TNF-induced activation of the JNK kinase pathway.

AP-1 = AP-1 activation
JNK = assay: TNF-induced JNK activation; conditions: FIG. 11
Description: as §4, §5

CREB = assay: TNF-α mediated phosphorylation/activation of transcription factor CREB
Procedure: as §1, §2, §3

Cc1ccc(=O)n(-c2ccccc2)c1 [Pirfenidone, 5-methyl-1-phenyl-2-(1H)-pyridone]
effect on TNF-α mediated insulin resistance (IRS1; cells treated with TNF-α): ameliorated
effect on TNF-α-mediated inhibition of insulin-induced IRS1 tyrosine phosphorylation (IRS1; insulin plus TNF-α): blocks
effect on insulin-induced phosphorylation of IRS1 (IRS1; insulin stimulation): increased
decrease of RAF activation (RAF): 2 fold
decrease of ERK activation (ERK): 7 fold
decrease of p38 MAPK activation (p38 MAPK): 2 fold
effect on TNF-induced activation of AKT (AKT): inhibition
effect on phosphorylation of ATF2 (ATF2): potentiated
effect on AP-1 activation (AP-1): potentiates
effect on TNF-induced JNK activation (JNK): potentiation
decrease of TNF-α mediated phosphorylation of CREB (CREB; P<0.01): 2 fold
upper limit of inhibition of CREB activation (CREB; at maximal pirfenidone concentrations): ≤ 75%
